Series [1] is described as follows: Jumping test on mouse (capacity to induce physical dependence). Format: in vivo. The conditions noted are these: Naloxone 10 mg/kg i.p. 4 hours after last administration, 15 minutes. How it is done: The compounds object of the present invention were tested in vivo in order to evaluate the capacity to induce physical dependence. The Jumping test described by Sealens et al. [Committee on Problems of Drug Dependence, vol. 2, (1971), page 1310] was used.
After 4 hours from the last administration, the animals were treated with Naloxone (10 mg/kg i.p.) and the number of jumps taken by the animals during the period of 15 minutes after the administration of Naloxone was counted.
In table 4, for exemplifying purposes, the percentage of jumping animals obtained for a compound of formula I is reported.

Series [2] in a line: hot plate test on mouse (central analgesic activity). Format: in vivo. The protocol: The compounds object of the present invention were tested in vivo in order to evaluate the central analgesic activity.
The hot plate test was carried out on mouse according to the method described by Eddy et al. (J. Pharmacol., 98, 121, 1950). The compounds were administered by systemic route (oral and subcutaneous). The analgesic activity was expressed as 50% effective dose (ED50).
In table 3 the results obtained for some representative compounds of formula I are reported.
A general note: In hot-plate and tail-flick tests a longer latency is read as antinociception.

Series [3] has as its system guinea-pig isolated ileum. The experiment in a line: morphine-like activity on guinea-pig isolated ileum (inhibition of electrically induced contractions). Type of series: cell-based. The conditions noted are these: inhibition of 50% of contraction, electric stimulation 0.1 Hz-0.5 msec. The protocol:
The experiments were carried out according to the method described by Goldstein and Schultz (Br. J. Pharmacol., 48, 655, 1975) which is based on the capacity of the molecules showing an agonist activity on opioid receptors to inhibit the contractions of smooth muscles of guinea-pig ileum induced by electric stimulation (0.1 Hz-0.5 msec.).
The pharmacological activity was expressed as the necessary concentration (mM) to inhibit 50% of contraction (IC50).

For series [4], the target named is T1, opioid receptors (Rattus norvegicus, UniProt P33535).
T1 construct: opioid receptors in rat-brain homogenate; from tissue; host or cells: rat brain (Sprague-Dawley) without cerebellum, homogenate / crude membrane pellet
The experiment in a line: competition for binding of [^3 H]-dihydromorphine (DHM) to opioid receptors in rat-brain homogenate. Also on record: species or system rat (Sprague-Dawley). The conditions noted are these: 1 nM ^3 H-DHM; 25° C., 30 minutes; read-out: IC50 for specific binding of ^3 H-DHM to rat-brain homogenate. How it is done: (1) Evaluation of the competition for binding of [^3 H]-dihydromorphine(DHM) to opioid receptors in rat-brain homogenate
The experiments were carried out according to the method described by Simon et al. [Proc. Nat. Acad. Sci. U.S.A., 70, pp. 1947-1949, (1973)].
Sprague-Dawley rats weighing about 150 g were used.
The animals were decapitated and, after removal of cerebellum, the brains were homogenized in […] Tris-HCl buffer (pH 7.4) containing 0.32M saccharose. The homogenate was centrifugated at 1000 rpm for 10 minutes and the supranatant was centrifugated again at 20000 rpm for 20 minutes.
The obtained pellet was suspended in a homogenization buffer without saccharose up to a protein concentration of 2 mg/ml. The incubating system consisted in: 500 μl of homogenate (1 mg of proteins), 390 μl of 50 mM Tris-HCl buffer (pH 7.4), 100 μl of a solution at different concentrations of the compounds of formula I or of 10 μM Naloxone for the determination of the aspecific binding and 10 μl of ^3 H-DHM (specific activity […], 1 nM final concentration). The mixture was incubated at 25° C. for 30 minutes after the addition of the radioactive binder.
Then, the samples were filtered through Whatman GF/B filters, washed twice with 3 ml volumes of buffer and dried in oven at 70° C. Filters were put in scintillation vials with 15 ml of Filter Count (Packard) scintillation cocktail and the radioactivity was evaluated by a Packard Tricarb 4530 scintillation counter with 60% efficiency.
The activity was expressed as inhibiting concentration (IC50) 50% of the binding of ^3 H-DHM.

The mark [5] stands for this setting: oral, mouse hot plate test, read-out: Analgesic activity ED50 (C.L. 95%), os.
The mark [6] stands for this setting: sc, subcutaneous, mouse hot plate test, read-out: Analgesic activity ED50 (C.L. 95%), s.c.

The structures appear in SMILES notation. Read-outs that look alike come from different tables or passages of the source.

T1 sequence (P33535 whole entry): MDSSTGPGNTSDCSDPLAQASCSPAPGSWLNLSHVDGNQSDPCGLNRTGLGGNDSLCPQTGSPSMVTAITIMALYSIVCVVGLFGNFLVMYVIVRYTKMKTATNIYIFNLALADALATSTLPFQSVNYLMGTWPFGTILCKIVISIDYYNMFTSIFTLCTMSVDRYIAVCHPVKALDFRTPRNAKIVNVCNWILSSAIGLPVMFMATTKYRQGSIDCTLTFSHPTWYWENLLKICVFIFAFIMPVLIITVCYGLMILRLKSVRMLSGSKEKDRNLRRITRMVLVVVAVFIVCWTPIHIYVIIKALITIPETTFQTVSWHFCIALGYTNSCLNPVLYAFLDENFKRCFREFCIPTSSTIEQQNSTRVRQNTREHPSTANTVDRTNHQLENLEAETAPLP

As usually defined, the ED50 is the dose at which the effect has come halfway, by size or by number of responders. The term IC50 denotes the midpoint of a concentration-inhibition curve. As for `CC[C@@H](C)N(C[C@H](O)[C@@H]1CCC(=O)N1Cc1ccccc1Cl)[C@H](C)CC` [Compound 1, (1S)-1-[(5S)-1-[(2-chlorophenyl)methyl]-2-oxo-5-pyrrolidinyl]-2-[(2R,2'R)-disec.butylamino]ethanol], in series [1] (total dose 3.8 mg/kg i.p.), the “Percentage of jumping animals (total dose 3.8 mg/kg i.p.)” value is reported as 5%. Moreover, the ED50 in series [2] (setting [5]) was determined as 2.6 mg/kg; in series [2] (setting [6]) it was 0.011 mg/kg. The IC50 in series [3] (Cavia porcellus) came out at 0.03 nM; in series [4], 0.9 nM.

In series [3] (Cavia porcellus), `CC[C@@H](C)N(C[C@H](O)[C@H]1CCC(=O)N1Cc1ccccc1Cl)[C@H](C)CC` [Compound 3, (1S)-1-[(5R)-1-[(2-chlorophenyl)methyl]-2-oxo-5-pyrrolidinyl]-2-[(2R,2'R)-disec.butylamino]ethanol] gave an IC50 of 4.6 nM.

Take `CC[C@@H](C)N(C[C@@H](O)[C@H]1CCC(=O)N1Cc1ccccc1Cl)[C@H](C)CC` [Compound 4, (1R)-1-[(5R)-1-[(2-chlorophenyl)methyl]-2-oxo-5-pyrrolidinyl]-2-[(2R,2'R)-disec.butylamino]ethanol]: in series [2] (setting [6]), the ED50 came out at 3.8 mg/kg. This molecule also yielded an IC50 in series [3] (Cavia porcellus) of 8.7 nM.

As to `CC[C@H](C)N(C[C@@H](O)[C@@H]1CCC(=O)N1Cc1ccccc1Cl)[C@@H](C)CC` [Compound 5, (1R)-1-[(5S)-1-[(2-chlorophenyl)methyl]-2-oxo-5-pyrrolidinyl]-2-[(2S,2'S)-disec.butylamino]ethanol], in series [3] (Cavia porcellus), the IC50 worked out at 50 nM.

Molecule `CC[C@@H](C)N(C[C@@H](O)[C@@H]1CCC(=O)N1Cc1ccccc1Cl)[C@@H](C)CC` [Compound 7, (1R)-1-[(5S)-1-[(2-chlorophenyl)methyl]-2-oxo-5-pyrrolidinyl]-2-[(2R,2'S)-disec.butylamino]ethanol] displayed an IC50 in series [3] (Cavia porcellus) of 70 nM.

In the case of `CC[C@@H](C)N(C[C@H](O)[C@@H]1CCC(=O)N1Cc1ccccc1Cl)[C@@H](C)CC` [Compound 8, (1S)-1-[(5S)-1-[(2-chlorophenyl)methyl]-2-oxo-5-pyrrolidinyl]-2-[(2R,2'S)-disec.butylamino]ethanol], in series [2] (setting [6]), the ED50 was 1.4 mg/kg. Besides, in series [3] (Cavia porcellus), the IC50 was found to be 44 nM.

`CC[C@@H](C)N(C[C@@H](O)[C@H]1CCC(=O)N1Cc1ccccc1Cl)[C@@H](C)CC` [Compound 12, (1R)-1-[(5R)-1-[(2-chlorophenyl)methyl]-2-oxo-5-pyrrolidinyl]-2-[(2R,2'S)-disec.butylamino]ethanol] displayed an IC50 in series [3] (Cavia porcellus) of 83 nM.

Take `CC[C@@H](C)N(C[C@H](O)[C@@H]1CCC(=O)N1Cc1ccccc1)[C@H](C)CC` [Compound 14, (1S)-1-[(5S)-2-oxo-1-(phenylmethyl)-5-pyrrolidinyl]-2-[(2R,2'R)-disec.butylamino]ethanol]: the ED50 in series [2] (setting [5]) came to 6.5 mg/kg; in series [2] (setting [6]), 0.04 mg/kg. Besides, the IC50 in series [3] (Cavia porcellus) is 0.43 nM; in series [4], 3.3 nM.

As for `CC[C@@H](C)N(C[C@@H](O)[C@@H]1CCC(=O)N1Cc1ccccc1F)[C@H](C)CC` [Compound 15, (1R)-1-[(5S)-1-[(2-fluorophenyl)methyl]-2-oxo-5-pyrrolidinyl]-2-[(2R,2'R)-disec.butylamino]ethanol], the IC50 in series [3] (Cavia porcellus) was 40 nM.

Turning to `CC[C@@H](C)N(C[C@H](O)[C@@H]1CCC(=O)N1Cc1ccccc1F)[C@H](C)CC` [Compound 16, (1S)-1-[(5S)-1-[(2-fluorophenyl)methyl]-2-oxo-5-pyrrolidinyl]-2-[(2R,2'R)-disec.butylamino]ethanol], the ED50 in series [2] (setting [5]) worked out at 5.8 mg/kg; in series [2] (setting [6]), 0.03 mg/kg. In addition, the IC50 amounted to 0.29 nM in series [3] (Cavia porcellus) and 2.5 nM in series [4].

On to `CC[C@@H](C)N(C[C@H](O)[C@@H]1CCC(=O)N1Cc1cccc(OC)c1)[C@H](C)CC` [Compound 18, (1S)-1-[(5S)-1-[(3-methoxyphenyl)methyl]-2-oxo-5-pyrrolidinyl]-2-[(2R,2'R)-disec.butylamino]ethanol], for which the ED50 in series [2] (setting [6]) came out at 0.07 mg/kg. Moreover, in series [3] (Cavia porcellus), the IC50 is 0.28 nM.

As for `CC[C@@H](C)N(C[C@@H](O)[C@@H]1CCC(=O)N1Cc1ccc(Cl)c(Cl)c1)[C@H](C)CC` [Compound 19, (1R)-1-[(5S)-1-[(3,4-dichlorophenyl)methyl]-2-oxo-5-pyrrolidinyl]-2-[(2R,2'R)-disec.butylamino]ethanol], the midpoint of inhibition in series [3] (Cavia porcellus), the IC50, lay at 0.77 nM.

Take `CC[C@@H](C)N(C[C@H](O)[C@@H]1CCC(=O)N1Cc1ccc(Cl)c(Cl)c1)[C@H](C)CC` [Compound 20, (1S)-1-[(5S)-1-[(3,4-dichlorophenyl)methyl]-2-oxo-5-pyrrolidinyl]-2-[(2R,2'R)-disec.butylamino]ethanol]: the ED50 in series [2] (setting [6]) stood at 0.28 mg/kg. The molecule also came in with an IC50 in series [3] (Cavia porcellus) of 0.23 nM.

`CC[C@@H](C)N(C[C@H](O)[C@@H]1CCC(=O)N1Cc1cc(Br)no1)[C@H](C)CC` [Compound 22, (1S)-1-[(5S)-1-(3-bromo-5-isoxazolylmethyl)-2-oxo-5-pyrrolidinyl]-2-[(2R,2'R)-disec.butylamino]ethanol]: in series [2] (setting [6]), the ED50 was 1 mg/kg. For the same molecule, the IC50 in series [3] (Cavia porcellus) was determined as 4.96 nM; in series [4], 9.4 nM.

Take `CC[C@@H](C)N(C[C@H](O)[C@@H]1CCC(=O)N1Cc1cccc(C(F)(F)F)c1)[C@H](C)CC` [Compound 24, (1S)-1-[(5S)-2-oxo-1-[(3-trifluoromethylphenyl)methyl]-5-pyrrolidinyl]-2-[(2R,2'R)-disec.butylamino]ethanol]: in series [2] (setting [6]), the ED50 came to 0.5 mg/kg. In series [3] (Cavia porcellus), this molecule showed an IC50 of 2.9 nM.

Take `CC[C@@H](C)N(C[C@H](O)[C@@H]1CCC(=O)N1Cc1ccc(Br)cc1)[C@H](C)CC` [Compound 26, (1S)-1-[(5S)-1-[(4-bromophenyl)methyl]-2-oxo-5-pyrrolidinyl]-2-[(2R,2'R)-disec.butylamino]ethanol]: in series [2] (setting [6]), the ED50 worked out at 0.03 mg/kg. This molecule returned an IC50 in series [3] (Cavia porcellus) of 0.04 nM.

Turning to `CC(C)N(C[C@H](O)[C@@H]1CCC(=O)N1Cc1ccccc1Cl)C(C)C` [Compound 34, (1S)-1-[(5S)-1-[(2-chlorophenyl)methyl]-2-oxo-5-pyrrolidinyl]-2-diisopropylaminoethanol], the IC50 in series [3] (Cavia porcellus) worked out at 44.7 nM.

As to `O=C1CC[C@@H]([C@@H](O)CN(C2CCCC2)C2CCCC2)N1Cc1ccccc1Cl` [Compound 36, (1S)-1-[(5S)-1-[(2-chlorophenyl)methyl]-2-oxo-5-pyrrolidinyl]-2-dicyclopentylaminoethanol], the ED50 in series [2] (setting [6]) amounted to 4.7 mg/kg. Moreover, the midpoint of inhibition in series [3] (Cavia porcellus), the IC50, lay at 4.06 nM.

For the molecule `CC[C@@H](C)N(C[C@H](O)[C@@H]1CCC(=O)N1Cc1ccccc1Cl)C(C)C` [Compound 38, (1S)-1-[(5S)-1-[(2-chlorophenyl)methyl]-2-oxo-5-pyrrolidinyl]-2-[[(R)-sec.butyl]isopropylamino]ethanol], the ED50 in series [2] (setting [6]) came to 1.1 mg/kg. The molecule also came in with an IC50 in series [3] (Cavia porcellus) of 21.5 nM.

In turn, `CCC(CC)N(C[C@H](O)[C@@H]1CCC(=O)N1Cc1ccccc1Cl)C(CC)CC` [Compound 40, (1S)-1-[(5S)-1-[(2-chlorophenyl)methyl]-2-oxo-5-pyrrolidinyl]-2-[bis(1-ethylpropyl)amino]ethanol] had an IC50 in series [3] (Cavia porcellus) of 60 nM.

As to `CC[C@@H](C)N(CC(O)C1CCCC(=O)N1Cc1ccccc1Cl)[C@H](C)CC` (stereo partly drawn) [Compound 43, 1-[2-[(2-chlorophenyl)methyl]-2-oxo-6-piperidinyl]-2-[(2R,2'R)-disec.butylamino]ethanol], the “Analgesic activity ED50 (C.L. 95%), s.c.” value in series [2] (subcutaneous, mouse hot plate test) is 0.1 mg/kg. In series [3], this molecule yielded an IC50 of 0.5 nM.

In the case of `CN1CC[C@]23c4c5ccc(O)c4O[C@H]2[C@@H](O)C=C[C@H]3[C@H]1C5` [morphine, reference compound], the “Percentage of jumping animals (total dose 156.0 mg/kg i.p.)” value in series [1] (total dose 156.0 mg/kg i.p.) is listed as 80%. The ED50 in series [2] (Mus musculus, po, read-out: Analgesic activity ED50 (C.L. 95%), os) was 18 mg/kg; in series [2] (Mus musculus, sc, read-out: Analgesic activity ED50 (C.L. 95%), s.c.), 3.5 mg/kg.

The record behind these values is patent US4960788A, “Pyrrolidone-2 compounds and their use for central analgesic activity” (priority 1988, dated 1990).
